Marks after values point to notes of the source that are not given here.
Columns and labels:
[1] = system: acetic acid-cautery type gastric ulcer; assay: Effect on gastric ulcer of rats induced by acetic acid cautery; format: in vivo, Wistar rats; conditions: 200 mg/kg i.g. once per day for 13 days; X ± SD, n = 10
Procedure: Eighty Wistar rats weighing between 200-220 g were selected in this experiment, male and female in half, and were randomly divided into 8 groups, 10 rats per group. Drugs were continually administered i.g. with the dosage listed in Table 2 for 13 days, once per day, while the model control group was administered i.g. with the same volume of vegetable oil. The model was established after 2 hours of the third administration. The rats were fasted for 24 hours before model-establishing and anaesthetized by ether, their abdomens were shaved and sterilized. A small incision was cut along the midline of the xiphoid. The stomach was gently pulled out, 10 μL 40% acetic acid was injected underneath the stomach chorion near pyloric gland areas. The stomach was then put back to the abdomen, and the incision was sewed up. Drugs were administered after operation. The rats were fasted for 24 hours after the last administration, and the animals were executed after being anaesthetized by urathane. […] After rinsing the content of stomach with saline, the stomach was fixed with 1% formaldehyde for 10 min, and then the diameters of ulcer points were measured using precise calipers and the ulcer areas were calculated. Ink was injected with a micro-syringe until its level reached the surface of gastric mucous membrane, and the volume of the injected ink was recorded. […]

[2] = system: gastric ulcers of pyloric ligation type; assay: Effect on gastric ulcers of pyloric ligation type in rats; format: in vivo, Wistar rats; conditions: 200 mg/kg i.g. once per day for 3 days; 5 grades by Okabe's method; X ± SD, n = 10
Procedure: Eighty Wistar rats weighing about 160 g were selected in this experiment, male and female in half, and were randomly divided into 8 groups, 10 rats per group. Drugs were continually administered i.g. with the dosage listed in Table 3 for 3 days, once per day, while the model control group was administered i.g. with the same volume of vegetable oil. The animals were anaesthetized by ether after 2 hours of the last administration (the rats were fasted for 48 hours before administration), and their abdomens were shaved and sterilized. A small incision was cut below the xiphoid. Their stomach was gently pulled out, and the stomach was then put back to the abdomen after pyloric ligation, and the incision was sewed up. After operation, the rats were abstained from food and water for 6 hours and executed after anaesthesia. The abdomen was cut open, the cardia was ligated, and the whole stomach was taken out and cut open along the greater curvature of stomach. After rinsing the content of stomach with saline, the stomach was fixed with 1% formaldehyde for 10 min, and then the diameters of the ulcer points were measured using precise calipers. Degree of the ulcer was expressed by total area of all ulcer points of each rat and was classified into 5 grades according to Okabe's method as index of ulcer.

## CNC(=C[N+](=O)[O-])NCCSCc1ccc(CN(C)C)o1 [Ranitidine]
[1]
  Ulcer area: 8.08 ± 5.72** mm^2
  Volumes of injected ink in ulcer region: 2.85 ± 2.63 µL
[2]
  Index of Ulcer: 0.8 ± 0.6
